One experiment deals with T1, FAAH (Homo sapiens, UniProt O00519).
T1 construct: Reactions were initiated by adding 12.5 μg of brain microsome; tissue ABS, Inc; host or cells: human brain cerebral cortex, membrane/microsome fraction pooled from 3 donors
T1 sequence (O00519 1-579): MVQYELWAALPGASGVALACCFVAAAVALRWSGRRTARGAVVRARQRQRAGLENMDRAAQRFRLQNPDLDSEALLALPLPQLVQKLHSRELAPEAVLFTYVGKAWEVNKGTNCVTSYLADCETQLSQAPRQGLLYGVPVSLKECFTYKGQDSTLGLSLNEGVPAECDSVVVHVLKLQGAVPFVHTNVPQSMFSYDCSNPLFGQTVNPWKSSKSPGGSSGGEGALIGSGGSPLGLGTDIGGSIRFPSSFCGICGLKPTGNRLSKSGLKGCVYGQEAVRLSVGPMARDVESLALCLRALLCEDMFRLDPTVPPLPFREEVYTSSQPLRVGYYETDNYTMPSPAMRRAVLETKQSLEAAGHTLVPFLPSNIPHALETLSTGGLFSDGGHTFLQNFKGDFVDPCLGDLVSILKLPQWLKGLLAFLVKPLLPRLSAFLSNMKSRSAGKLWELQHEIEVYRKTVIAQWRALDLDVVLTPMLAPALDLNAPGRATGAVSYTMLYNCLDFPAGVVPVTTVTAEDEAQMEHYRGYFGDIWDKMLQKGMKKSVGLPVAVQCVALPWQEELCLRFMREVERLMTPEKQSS
The experiment in a line: FAAH inhibition, human brain membrane homogenate assay. Format: biochemical. As to conditions: human brain homogenate; average activity; read-out: Human brain Extract FAAH IC50.

In the next experiment the target is T2, human FAAH-1 (Homo sapiens, UniProt O00519).
T2 sequence (O00519 1-579): T1 sequence (O00519 1-579)
The experiment in a line: Whole cell anandamide hydrolysis assay (HeLa clone 5c5 transfected with human FAAH-1). The conditions noted are these: HeLa clone 5c5 expressing human FAAH-1; read-out: human FAAH whole cell IC50. Format: cell-based. An outline of the steps: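 Stable HeLa clone 5c5 expressing human FAAH-1, pre-incubated with compound 10 min at 37° C in DMEM/F12 with 15 mM HEPES pH 7.4 and 0.1% fatty-acid-free BSA. [3H]-anandamide (5 μM stock) added for 15 min; [3H]-ethanolamine separated on charcoal and counted. IC50 from curves constrained to 100% and 0%.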

For orientation: IC50 means the concentration needed to halve the response being measured.

Turning to `COc1cc(NC(=O)C(=O)c2c(C)n(Cc3ccc(Cl)cc3)c3cccnc23)ccn1` [Compound 3, 2-(1-(4-chlorobenzyl)-2-methyl-1H-pyrrolo[3,2-b]pyridin-3-yl)-N-(2-methoxypyridin-4-yl)-2-oxoacetamide], the IC50 at FAAH and at human FAAH-1 was below 100 nM in each case.
Turning to `COc1cc(NC(=O)C(=O)c2c(C)n(Cc3ccc(Cl)cc3)c3ccc(C(=O)O)cc23)ccn1` [Compound 4, 1-(4-chlorobenzyl)-3-(2-(2-methoxypyridin-4-ylamino)-2-oxoacetyl)-2-methyl-1H-indole-5-carboxylic acid], the IC50 at FAAH and on human FAAH-1 was 1000 to 10000 nM in each case.
`COc1ccc2c(c1)c(C(=O)C(=O)Nc1ccnc(OC)c1)c(C)n2Cc1cccnc1` [Compound 78, 2-(5-methoxy-2-methyl-1-(pyridin-3-ylmethyl)-1H-indol-3-yl)-N-(2-methoxypyridin-4-yl)-2-oxoacetamide]: the IC50 on FAAH is 100 to 1000 nM; on human FAAH-1, below 100 nM.
Taken in the same sequence, the figures for `COc1ccc2c(c1)c(C(=O)C(=O)Nc1ccnc(OC)c1)c(C)n2Cc1ccc(Cl)cn1` [Compound 79, 2-(1-((5-chloropyridin-2-yl)methyl)-5-methoxy-2-methyl-1H-indol-3-yl)-N-(2-methoxypyridin-4-yl)-2-oxoacetamide] were below 100 nM and below 100 nM.
The like results for `COc1cc(NC(=O)C(=O)c2c(C)n(Cc3ccc(Cl)cc3)c3cc(OC)c(Cl)cc23)ccn1` [Compound 80, 2-(5-chloro-1-(4-chlorobenzyl)-6-methoxy-2-methyl-1H-indol-3-yl)-N-(2-methoxypyridin-4-yl)-2-oxoacetamide] were, in that order, below 100 nM and below 100 nM.
The like results for `COc1ccc2c(c1)c(C(=O)C(=O)Nc1ccnc(OC)c1)c(C)n2Cc1ncc(F)cc1F` [Compound 81, 2-(1-((3,5-difluoropyridin-2-yl)methyl)-5-methoxy-2-methyl-1H-indol-3-yl)-N-(2-methoxypyridin-4-yl)-2-oxoacetamide] were, in that order, below 100 nM and below 100 nM.
Regarding `COc1ccc2c(c1)c(C(=O)C(=O)Nc1ccnc(OC)c1)c(C)n2Cc1ncc(Cl)cc1Cl` [Compound 82, 2-(1-((3,5-dichloropyridin-2-yl)methyl)-5-methoxy-2-methyl-1H-indol-3-yl)-N-(2-methoxypyridin-4-yl)-2-oxoacetamide], the 50% inhibitory concentration (IC50) on FAAH and on human FAAH-1 was below 100 nM in each case.
Take `COc1ccc2c(c1)c(C(=O)C(=O)Nc1ccnc(OC)c1)c(C)n2Cc1ncccn1` [Compound 83, 2-(5-methoxy-2-methyl-1-(pyrimidin-2-ylmethyl)-1H-indol-3-yl)-N-(2-methoxypyridin-4-yl)-2-oxoacetamide]: the results for the IC50 at FAAH and at human FAAH-1 were 1000 to 10000 nM and 100 to 1000 nM, respectively.
Taken in the same sequence, the figures for `COc1ccc2c(c1)c(C(=O)C(=O)Nc1ccnc(OC)c1)c(C)n2Cc1ccc(C)cn1` [Compound 84, 2-(5-methoxy-2-methyl-1-((5-methylpyridin-2-yl)methyl)-1H-indol-3-yl)-N-(2-methoxypyridin-4-yl)-2-oxoacetamide] were below 100 nM and below 100 nM.
Taken in the same sequence, the figures for `COc1cc(NC(=O)C(=O)c2c(C)n(Cc3ccc(F)cn3)c3ccc(C)cc23)ccn1` [Compound 85, 2-(1-((5-fluoropyridin-2-yl)methyl)-2,5-dimethyl-1H-indol-3-yl)-N-(2-methoxypyridin-4-yl)-2-oxoacetamide] were below 100 nM and below 100 nM.
Taken in the same sequence, the figures for `COc1ccc2c(c1)c(C(=O)C(=O)Nc1ccnc(OC)c1)c(C)n2Cc1ccc(Cl)nn1` [Compound 86, 2-(1-((6-chloropyridazin-3-yl)methyl)-5-methoxy-2-methyl-1H-indol-3-yl)-N-(2-methoxypyridin-4-yl)-2-oxoacetamide] were below 100 nM and below 100 nM.
`COc1ccc2c(c1)c(C(=O)C(=O)Nc1ccnc(OC)c1)c(C)n2Cc1ncc(Cl)cc1F` [Compound 87, 2-(1-((5-chloro-3-fluoropyridin-2-yl)methyl)-5-methoxy-2-methyl-1H-indol-3-yl)-N-(2-methoxypyridin-4-yl)-2-oxoacetamide]: the IC50 on FAAH and at human FAAH-1 was below 100 nM throughout.
Take `COc1cc(NC(=O)C(=O)c2c(C)n(Cc3ccc(Cl)cc3)c3cc(F)c(C)cc23)ccn1` [Compound 89, 2-(1-(4-chlorobenzyl)-6-fluoro-2,5-dimethyl-1H-indol-3-yl)-N-(2-methoxypyridin-4-yl)-2-oxoacetamide]: the IC50 on FAAH and on human FAAH-1 was below 100 nM each time.
Take `COc1cc(NC(=O)C(=O)c2c(C)n(Cc3ccc(Cl)cn3)c3cc(F)c(C)cc23)ccn1` [Compound 90, 2-(1-((5-chloropyridin-2-yl)methyl)-6-fluoro-2,5-dimethyl-1H-indol-3-yl)-N-(2-methoxypyridin-4-yl)-2-oxoacetamide]: the IC50 on FAAH and on human FAAH-1 was below 100 nM throughout.
Consider `COc1cc(NC(=O)C(=O)c2c(C)n(Cc3ccc(Cl)cc3F)c3cc(F)c(OC)cc23)ccn1` [Compound 91, 2-(1-(4-chloro-2-fluorobenzyl)-6-fluoro-5-methoxy-2-methyl-1H-indol-3-yl)-N-(2-methoxypyridin-4-yl)-2-oxoacetamide], for which the IC50 at FAAH and on human FAAH-1 was below 100 nM each time.
As for `COc1cc(NC(=O)C(=O)c2c(C)n(Cc3ccc(Cl)cc3Cl)c3cc(F)c(OC)cc23)ccn1` [Compound 92, 2-(1-(2,4-dichlorobenzyl)-6-fluoro-5-methoxy-2-methyl-1H-indol-3-yl)-N-(2-methoxypyridin-4-yl)-2-oxoacetamide], the concentration for half-maximal inhibition (IC50) on FAAH and at human FAAH-1 was below 100 nM throughout.
Consider `COc1cc(NC(=O)C(=O)c2c(C)n(Cc3ccc(Cl)cc3)c3cc(Cl)c(C)cc23)ccn1` [Compound 93, 2-(6-chloro-1-(4-chlorobenzyl)-2,5-dimethyl-1H-indol-3-yl)-N-(2-methoxypyridin-4-yl)-2-oxoacetamide], for which the IC50 on FAAH and on human FAAH-1 was below 100 nM each time.
In the case of `COc1cc(NC(=O)C(=O)c2c(C)n(Cc3ccc(Cl)cn3)c3cc(Cl)c(C)cc23)ccn1` [Compound 94, 2-(6-chloro-1-((5-chloropyridin-2-yl)methyl)-2,5-dimethyl-1H-indol-3-yl)-N-(2-methoxypyridin-4-yl)-2-oxoacetamide], the IC50 at FAAH and at human FAAH-1 was below 100 nM in each case.

For the origin of these results see patent publication US20150175599A1, “FAAH Inhibitors” (Ironwood Pharmaceuticals, Inc., priority 2010, published 2015).
